≈ marks a conversion by molar mass, not a printed value.

Data set [1] has as its system Pichia kudriavzevii. Description: Antifungal activity against Candida krusei 69 assessed as fungal growth inhibition incubated for 48 hrs by broth microdilution method. Format: functional. For orientation: Broth dilution looks for growth in wells or tubes with falling amounts of substance.
Data set [2] relates to Aspergillus fumigatus. Description: Antifungal activity against Aspergillus fumigatus 7544 assessed as fungal growth inhibition incubated for 48 hrs by broth microdilution method. It is filed as functional.
Data set [3] deals with Nakaseomyces glabratus. As to the kind of experiment: Antifungal activity against Candida glabrata 205 assessed as fungal growth inhibition incubated for 48 hrs by broth microdilution method. Format: functional.
Data set [4] concerns Aspergillus fumigatus. As to the kind of experiment: Antifungal activity against Aspergillus fumigatus 023-12 assessed as fungal growth inhibition incubated for 48 hrs by broth microdilution method. It is filed as functional.
Data set [5] deals with Pichia kudriavzevii. Description: Antifungal activity against Candida krusei 68 assessed as fungal growth inhibition incubated for 48 hrs by broth microdilution method. Format: functional.
Data set [6] relates to Nakaseomyces glabratus. Description: Antifungal activity against Candida glabrata 201 assessed as fungal growth inhibition incubated for 48 hrs by broth microdilution method. It is filed as functional.
In data set [7] the test system is Cryptococcus neoformans. As to the kind of experiment: Antifungal activity against Cryptococcus neoformans 444 assessed as fungal growth inhibition incubated for 48 hrs by broth microdilution method. It is filed as functional.
The test system of data set [8] is Nakaseomyces glabratus. As to the kind of experiment: Antifungal activity against Candida glabrata 202 assessed as fungal growth inhibition incubated for 48 hrs by broth microdilution method. It is filed as functional.
Data set [9] relates to Candida albicans. As to the kind of experiment: Antifungal activity against Candida albicans SC5314 assessed as fungal growth inhibition incubated for 48 hrs by broth microdilution method. Format: functional.
The subject of data set [10] is Cryptococcus neoformans. As to the kind of experiment: Antifungal activity against Cryptococcus neoformans 443 assessed as fungal growth inhibition incubated for 48 hrs by broth microdilution method. Format: functional.
Data set [11] deals with Candida parapsilosis. As to the kind of experiment: Antifungal activity against Candida parapsilosis 125 assessed as fungal growth inhibition incubated for 48 hrs by broth microdilution method. It is filed as functional. The settings on record: Lodderomyces parapsilosis.
For data set [12], the system named is Aspergillus fumigatus. Description: Antifungal activity against Aspergillus fumigatus A assessed as fungal growth inhibition incubated for 48 hrs by broth microdilution method. Format: functional.
Data set [13] has as its system Candida albicans. Description: Antifungal activity against Candida albicans 21 assessed as fungal growth inhibition incubated for 48 hrs by broth microdilution method. It is filed as functional.
The test system of data set [14] is Cryptococcus neoformans. As to the kind of experiment: Antifungal activity against Cryptococcus neoformans 445 assessed as fungal growth inhibition incubated for 48 hrs by broth microdilution method. Format: functional.
Data set [15] has as its system Candida tropicalis. As to the kind of experiment: Antifungal activity against Candida tropicalis 176 assessed as fungal growth inhibition incubated for 48 hrs by broth microdilution method. It is filed as functional.
In data set [16] the test system is Candida parapsilosis. As to the kind of experiment: Antifungal activity against Candida parapsilosis 107 assessed as fungal growth inhibition incubated for 48 hrs by broth microdilution method. The settings on record: Lodderomyces parapsilosis. It is filed as functional.
The test system of data set [17] is Candida tropicalis. As to the kind of experiment: Antifungal activity against Candida tropicalis 178 assessed as fungal growth inhibition incubated for 48 hrs by broth microdilution method. It is filed as functional.
The subject of data set [18] is Candida albicans. As to the kind of experiment: Antifungal activity against Candida albicans 22 assessed as fungal growth inhibition incubated for 48 hrs by broth microdilution method. Format: functional.
In data set [19] the test system is Pichia kudriavzevii. As to the kind of experiment: Antifungal activity against Candida krusei 477 assessed as fungal growth inhibition incubated for 48 hrs by broth microdilution method. It is filed as functional.
Data set [20] has as its system Candida parapsilosis. As to the kind of experiment: Antifungal activity against Candida parapsilosis 105 assessed as fungal growth inhibition incubated for 48 hrs by broth microdilution method. Format: functional. The settings on record: Lodderomyces parapsilosis.
Data set [21] deals with Candida tropicalis. Description: Antifungal activity against Candida tropicalis 184 assessed as fungal growth inhibition incubated for 48 hrs by broth microdilution method. Format: functional.
The nature of data set [22]: Cytotoxicity against human Caco-2 cells assessed as cell growth inhibition incubated for 24 hrs by CCK8 assay. It is filed as toxicity, cell-based.

As to `COc1ccccc1C(NC(=O)Cc1ccccc1)c1ccc2cccnc2c1O` (configuration not stated), the MIC with Pichia kudriavzevii [1] amounted to 0.25 µg/mL (≈ 0.627 µM); in the data set on Aspergillus fumigatus [2], 2 µg/mL (≈ 5.02 µM); with Nakaseomyces glabratus [3], 0.5 µg/mL (≈ 1.25 µM); with Aspergillus fumigatus [4], 2 µg/mL (≈ 5.02 µM); in the data set on Pichia kudriavzevii [5] it was 0.125 µg/mL (≈ 0.314 µM); in the data set on Nakaseomyces glabratus [6], 0.125 µg/mL (≈ 0.314 µM). Besides, the MIC turned out to be 0.125 µg/mL (≈ 0.314 µM) with Cryptococcus neoformans [7]; 0.125 µg/mL (≈ 0.314 µM) with Nakaseomyces glabratus [8]; 0.125 µg/mL (≈ 0.314 µM) in the data set on Candida albicans [9]; 0.125 µg/mL (≈ 0.314 µM) in the data set on Cryptococcus neoformans [10]; 0.125 µg/mL (≈ 0.314 µM) in the data set on Candida parapsilosis [11]; 2 µg/mL (≈ 5.02 µM) with Aspergillus fumigatus [12]. Moreover, the MIC in the data set with Candida albicans [13] is below 0.125 µg/mL; in the data set on Cryptococcus neoformans [14], 0.5 µg/mL (≈ 1.25 µM); with Candida tropicalis [15], above 64 µg/mL; in the data set on Candida parapsilosis [16], 0.125 µg/mL (≈ 0.314 µM); in the data set with Candida tropicalis [17] it was above 64 µg/mL; with Candida albicans [18] it was 0.125 µg/mL (≈ 0.314 µM). Moreover, the MIC in the data set with Pichia kudriavzevii [19] was 0.25 µg/mL (≈ 0.627 µM); in the data set on Candida parapsilosis [20], 0.125 µg/mL (≈ 0.314 µM); in the data set with Candida tropicalis [21], above 64 µg/mL. For the same compound, the half-maximal inhibitory concentration (IC50) at 24 h in data set [22] is above 64 µg/mL.

A word on the MIC: it is the lowest concentration that inhibits growth of the organism. A word on the IC50: it is the midpoint of a concentration-inhibition curve.

(Values after ChEMBL document CHEMBL5375952, “Discovery of Novel 8-Hydroxyquinoline Derivatives with Potent In Vitro and In Vivo Antifungal Activity” (J Med Chem, 2023).)
